Test results: patent publication US20130158075A1, “HETEROCYCLIC COMPOUNDS AS DGAT1 INHIBITORS” (PIRAMAL ENTERPRISES LIMITED, priority 2010, published 2013)

Tests used:
[1] = biological target: T1, hDGAT1 (Homo sapiens, UniProt O75907); assay: In-vitro DGAT1 assay with hDGAT1 microsomes from Sf9 cells (14C oleoyl CoA, scintillation counting); assay type: biochemical; conditions: read-out: Percentage inhibition of hDGAT1
T1 construct: made in house; host or cells: Sf9 insect cells (baculovirus); microsomal fraction
T1 sequence (O75907 1-488): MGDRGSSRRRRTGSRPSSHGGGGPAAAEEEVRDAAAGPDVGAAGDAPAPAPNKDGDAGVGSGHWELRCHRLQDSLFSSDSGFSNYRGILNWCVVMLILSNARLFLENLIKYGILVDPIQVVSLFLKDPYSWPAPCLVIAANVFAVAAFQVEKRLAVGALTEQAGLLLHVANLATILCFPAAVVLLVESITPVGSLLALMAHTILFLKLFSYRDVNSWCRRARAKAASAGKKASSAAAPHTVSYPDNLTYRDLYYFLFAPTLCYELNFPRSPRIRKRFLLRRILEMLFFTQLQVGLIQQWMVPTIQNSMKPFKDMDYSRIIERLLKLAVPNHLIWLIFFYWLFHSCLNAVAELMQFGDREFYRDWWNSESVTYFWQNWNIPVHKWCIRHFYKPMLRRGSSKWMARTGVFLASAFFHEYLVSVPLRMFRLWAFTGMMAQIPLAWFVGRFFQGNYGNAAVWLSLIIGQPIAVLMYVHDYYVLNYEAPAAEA
In short: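 Radiolabelled triglyceride formation was measured: heptane extracts were scintillation-counted after a 10-min, 37 °C reaction stopped with alkaline ethanol. Enzyme was human DGAT1 in baculovirus-infected Sf9 microsomal membranes; substrates were 14C oleoyl-CoA plus dioleoylglycerol. Runs were duplicated, and inhibition (%) was related to nM compound concentration.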

[2] = system: DGAT1 mediated retinyl-ester formation in Caco-2 cells; conditions: cited from earlier work
[3] = biological target: DGAT2 (Homo sapiens, UniProt Q96PD7); conditions: cited from earlier work
DGAT2, sequence (Q96PD7 whole entry, species assumed): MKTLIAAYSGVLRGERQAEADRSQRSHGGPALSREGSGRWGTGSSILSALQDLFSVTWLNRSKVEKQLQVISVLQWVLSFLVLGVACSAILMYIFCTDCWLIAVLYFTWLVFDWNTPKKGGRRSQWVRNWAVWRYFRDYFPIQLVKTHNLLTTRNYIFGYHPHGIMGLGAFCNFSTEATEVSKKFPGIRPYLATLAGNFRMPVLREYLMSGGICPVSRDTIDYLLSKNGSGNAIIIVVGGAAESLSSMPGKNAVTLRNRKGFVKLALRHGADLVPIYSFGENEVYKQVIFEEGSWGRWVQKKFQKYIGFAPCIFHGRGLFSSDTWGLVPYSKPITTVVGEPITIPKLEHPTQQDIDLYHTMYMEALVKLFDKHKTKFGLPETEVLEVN

Row | SMILES | inhibition at 1 µM [1] [%] | block of DGAT1 mediated retinyl-ester formation [2] | activity against DGAT2 [3]
1 | O=C(Nc1ccc(-c2cnc(C3CCC(C(=O)O)CC3)s2)cc1)Nc1cc(F)c(F)cc1F (stereo not shown) [Example 584, 4-(5-(4-(3-(2,4,5-Trifluorophenyl)ureido)phenyl)thiazol-2-yl)cyclohexane carboxylic acid] | > 50 | – | –
2 | CC(C)(O)C1CCC(c2ncc(-c3ccc(NC(=O)Nc4cc(F)c(F)cc4F)cc3)s2)CC1 (stereo not shown) [Example 585, 1-(4-(2-(4-(2-Hydroxypropan-2-yl)cyclohexyl)thiazol-5-yl)phenyl)-3-(2,4,5-trifluorophenyl)urea] | > 50 | – | –
3 | CC(C)(N)C1CCC(c2ncc(-c3ccc(NC(=O)Nc4cc(F)c(F)cc4F)cc3)s2)CC1 (stereo not shown) [Example 587, 1-(4-(2-(4-(2-Aminopropan-2-yl)cyclohexyl)thiazol-5-yl)phenyl)-3-(2,4,5-trifluorophenyl)urea] | > 50 | – | –
4 | CC(C)(N)C1CCC(c2ncc(-c3ccc(NC(=O)Nc4ccc(F)cc4F)cc3)s2)CC1 (stereo not shown) [Example 589, 1-(4-(2-(4-(2-Aminopropan-2-yl)cyclohexyl)thiazol-5-yl)phenyl)-3-(2,4-difluorophenyl)urea] | > 50 | – | –
5 | CC(C)(N)CC1CCC(c2ncc(-c3ccc(NC(=O)Nc4cc(F)c(F)cc4F)cc3)s2)CC1 (stereo not shown) [Example 591, 1-(4-(2-(4-(2-Amino-2-methylpropyl)cyclohexyl)thiazol-5-yl)phenyl)-3-(2,4,5-trifluorophenyl)urea] | > 50 | – | –
6 | CC(C)C(NC(=O)c1ccc(-c2ccc(Nc3nc4ccc(F)cc4s3)cc2)cc1)C(=O)O (stereo not shown) [XP620, 2-(4′-(6-fluorobenzo[d]thiazol-2-ylamino)biphenyl-4-ylcarboxamido)-3-methylbutanoic acid] | – | able to block | no activity
